The results in this text go back to US20130090381A1, “PYRETHRINOID-TYPE ESTERS AS PESTICIDES” (SUMITOMO CHEMICAL COMPANY, LIMITED, priority 2010, published 2013).

In this assay the test system is German cockroaches. Kind of assay: Knockdown test on German cockroaches by spraying an oil solution. The assay is classed as in vivo, German cockroach (Blattella germanica). The following applies: 0.1% (w/v) oil solution, 1.5 ml sprayed; after 15 minutes; ten German cockroaches (5 of each male and female). The procedure: The present invention compound (1) (0.1 parts) produced in the aforementioned Production Example was dissolved in 10 parts of isopropyl alcohol and the resulting solution was mixed with 89.9 parts of deodorized kerosine to prepare a 0.1% (w/v) oil solution.
Ten German cockroaches (5 of each male and female) were released in a test container (measuring 8.75 cm in diameter and 7.5 cm in height, bottom area covered with a 16 mesh wire netting) coated with butter at an inner wall, and the container was disposed on the bottom of a test chamber (bottom surface measuring 46 cm and 46 cm, 70 cm in height).
From 60 cm in height above the container, 1.5 ml of the oil solution of the present invention compound (1) was sprayed using a spray gun (spray pressure: 0.4 kg/cm^2). Thirty seconds after spraying, the container was removed from the test chamber. After a given time, the number of knockdowned cockroaches was counted and a knockdown rate was determined (repeated once). The knockdown rate was calculated by the following equation.
Knockdown rate (%)=(number of knockdowned cockroaches/number of test cockroaches)×100

Turning to `C#CCC1=C(C)[C@@H](OC(=O)[C@@H]2[C@@H](/C=C(C#N)/C=C/C)C2(C)C)CC1=O` [present invention compound (1), (S)-2-methyl-3-propynylcyclopent-2-en-4-on-1-yl=(1R)-trans-3-[(1Z,3E)-2-cyano-1,3-pentadienyl]-2,2-dimethylcyclopropane carboxylate], the knockdown rate stood at 100%.
